Tests used:
MΦ-cTLR4 cells [1] = test: Cytokine profile (ELISA of supernatants) of MΦ-cTLR4 cells; assay type: cell-based, murine
Description: We tested IL-6 and TNFα concentrations in supernatants of transduced RAW264.7 cells in vitro. Briefly, MΦ-cTLR4 cells (1×106) were plated in each well of a 6-well plate and treated with vehicle (100% EtOH), LPS (100 ng/mL), CID drug (50 nM), or left untreated in DMEM without serum. Supernatants were collected and tested using the mouse IL-6 ELISA Ready-SET-Go! and the mouse TNFα ELISA Ready-SET-Go! Kits (eBioscience) according to the manufacturer's instructions. Plates were read at 450 nm with a 570 nm wavelength subtraction, normalized to standard solutions, and concentrations (pg/mL) were calculated.

bEnd.3 endothelial cells = test: Endothelial cell activation by MΦ-cTLR4 conditioned media (flow cytometry for VCAM-1 and ICAM-1); assay type: cell-based, mouse; settings: media from MΦ-cTLR4 treated 6 h (TNFα 20 ng/mL, CID 50 nM); bEnd.3 incubated 12 h
Description: MΦ-cTRL4 conditioned media, following a 6 hour treatment in 6-well plates (1×10^6 cells/well), was transferred to plated bEnd.3 cells in a 12-well plate (0.2×10^6 cells/well). Before media transfer, TNFα neutralizing and IgG isotype antibody (1 μg/mL) were incubated in media for 15 minutes. Media was then added to bEnd.3 cells for 12 hours. Following incubation, bEnd.3 cells were trypsinized and stained for ICAM-1 and VCAM-1. Cell cytometry was performed on a FACSCanto II Cell Analyzer (BD Biosciences) equipped with 488 nm and 647 nm lasers. Typically, 10,000 cells were analyzed per sample. Experiments were repeated at least three times. Non-specific staining was evaluated using a monoclonal antibody for IgG2b and IgG2a (eBioscience).

[2] = test system: MΦ-cTLR4 cells in Matrigel plug; test: In vivo Matrigel plug with MΦ-cTLR4 cells; set-up: species or system BALB/c mice; settings: 14 day; CID drug 2 mg/kg intraperitoneal every other day; s.c. Matrigel plug
Description: Four groups of 4 week old female BALB/c mice (total of 16 mice) were used in this in vivo study. The four groups consisted of: 7 day non-treated mice, 7 day CID-treated mice, 14 day non-treated mice, and 14 day CID-treated mice. At day of injection, pre-plated MΦ-cTLR4 cells were lifted off and counted. 0.5×10^6 cells were s.c. injected mixed in with Matrigel into the right back dorsal area of the mouse. Before placing mouse back in cage, mice were injected with the first intraperitoneal CID drug dose (2 mg/kg mouse weight). Treatment groups were given CID drug injections every other day during the course of the experiment (FIG. 20).

MΦ-cTLR4 cells [3] = test: ELISA for VEGF-A in MΦ-cTLR4 medium; assay type: cell-based, murine; settings: for VEGF expression compared to controls: single treatment (FIG. 22A)
Description: In order to determine if the MΦ-cTLR4 cells were expressing the key angiogenic molecule VEGF-A, an ELISA was performed to test for VEGF-A levels in MΦ-cTLR4 medium following various treatments (FIG. 22A). […] Since studies have shown human and rat MΦs express increased VEGF with IFN-γ treatment, the response was also tested with this factor.

[4] = test system: MΦ-cTLR4 cells co-cultured with rat aortic ECs (RAECs); test: Co-culture tube formation (angiogenesis) assay; assay type: cell-based; settings: CID 50 nM or LPS 100 ng/mL added to the medium
Excerpt: Untreated MΦ-cTLR4 cells co-cultured with rat aortic ECs (RAECs), with no added factors to the medium, had the least amount of isolated segments, the least amount of branches, and the most amount of branching interval.

MΦ-cTLR4 cells [5] = test: Western blot for iNOS in MΦ-cTLR4 cells; assay type: cell-based, murine; settings: 24 h treatment; CID 50 nM, LPS 100 ng/mL
Description: (§1) Protein from RAW264.7, MΦ-T2A (vector control cells), and MΦ-cTLR4 cell monolayers were extracted by lysis in Laemmli buffer containing 1× Halt Protease Inhibitor cocktail (Thermo Scientific). Following lysis, samples were boiled and protein concentration was determined by performing a BCA assay from Thermo Scientific. Samples (10-30 μg of lysates) were run on 4-20% Mini-PROTEAN® TGX precast polyacrylamide gels (Bio-Rad). Protein from gels were transferred onto PVDF membranes and probed with the appropriate primary antibody overnight. Membranes were washed between each antibody incubation and subsequently probed with the appropriate HRP-conjugated secondary antibody (Life Technologies). The Clarity Western ECL Substrate (Bio-Rad) was used to detect bands.

[6] = test system: ERK1/2 phosphorylation in MΦ-cTLR4 cells; test: Western blot for p-ERK and total ERK (MyD88-dependent pathway); assay type: cell-based, murine; settings: 0 to 60 minutes; CID 50 nM, LPS 100 ng/mL
Description: as §1
Following LPS stimulation and subsequent TNFα production, the TLR4 pathway leads to activation of NF-κB and the three MAPK pathways through the MyD88-dependent pathway. Both NF-κB and MAPK pathways directly control the transcription of the IL-6 and iNOS inflammatory genes, as well as control the mRNA stability of those transcripts. For the activated MΦ-cTLR4 cells, ERK1/2 phosphorylation is expected if the MyD88 dependent pathway and subsequent downstream TRAF6 activation has occurred. […]

[7] = test system: IRF3 phosphorylation in MΦ-cTLR4 cells; test: Western blot for p-IRF3 and total IRF3 (MyD88-independent pathway); assay type: cell-based, murine; settings: CID 50 nM, LPS 100 ng/mL; compared to vehicle
Description: as §1
To determine if the MΦ-cTLR4 cells were signaling through the MyD88-independent pathway, we tested for phosphorylated IRF3. […] The IRF3 phosphorylation of the CID- and LPS-treated MΦ-cTLR4 cells starts to decrease following the 2 hour timepoint and subsequently reaches similar levels as vehicle at the 6 and 12 hour timepoints.

[8] = test system: NF-κB promoter in MΦ-cTLR4 cells; test: Dual-Luciferase NF-κB reporter assay; assay type: cell-based, murine; settings: CID 50 nM, 4 hours; compared to vehicle
Description: Two hundred thousand cells/well were seeded in 24-well plates. The following day each well was transfected with a total of 0.8 μg plasmid DNA, which consisted of a 20:1 ratio of pBllX-LUC (NFκB reporter construct):pRL (Renilla luciferase construct). The promoterless pGL4.10 vector was also transfected in a 20:1 ratio of pGL4.10:pRL, as a control. Transfections of each well were performed with 2 μL Lipofectamine 2000 (Invitrogen). The following morning transfection reagents were replaced with fresh serum-free medium and treated with either vehicle (100% EtOH) or CID drug (50 nM) for 4 hours. Cell lysate was harvested and luciferase activity was measured using a Dual-Luciferase® reporter assay kit (Promega) according to manufacturer's instructions. All groups were normalized to Renilla luciferase.

[9] = 24 h treatment, CID drug 50 nM, compared to uninduced controls

`CC[C@H](C(=O)N1CCCC[C@H]1C(=O)O[C@H](CCc1ccc(OC)c(OC)c1)c1cccc(OCC(=O)NCC(CNC(=O)COc2cccc([C@@H](CCc3ccc(OC)c(OC)c3)OC(=O)[C@@H]3CCCCN3C(=O)[C@@H](CC)c3cc(OC)c(OC)c(OC)c3)c2)CN(C)C)c1)c1cc(OC)c(OC)c(OC)c1` [CID drug, AP20187] was tested, and the “time to upregulation of key pro-inflammatory markers after CID drug addition” value (MΦ-cTLR4 cells [1]) was 6 h, the IL-6 levels (MΦ-cTLR4 cells [1]; [9]) was “increased” and the TNFα levels (MΦ-cTLR4 cells [1]; [9]) was “increased”. For the same molecule, the “time IL-6 levels stayed activated” value (MΦ-cTLR4 cells [1]; constant CID drug (50 nM) in media) was 72 h, the “time elevated levels of TNFα, IL-6 and iNOS are maintained” value (MΦ-cTLR4 cells [1]; constant CID drug (50 nM) in media, changed every 24 h) was “at least 48 hours” and the “dose producing the maximum activation of MΦ-cTLR4 cells (IL-6 ELISA)” value (MΦ-cTLR4 cells [1]; titration 50 nM-250 nM, 24 h treatment) was “at least 50 nM”. The “EC positive for ICAM-1” value (bEnd.3 endothelial cells) was 64.4%, the “EC positive for VCAM-1” value (bEnd.3 endothelial cells) was 93.7% and the “co-localization of GFP MΦ-cTLR4 cells and iNOS regions in plug” value [2] was “occurrences of GFP/iNOS co-localization”. The “VEGF expression compared to controls” value (MΦ-cTLR4 cells [3]) was “significantly decreased amounts of VEGF”, the “branching interval vs untreated co-cultures” value [4] was “smaller branching interval” and the isolated segments [4] was “slightly more isolated segments than the untreated group”. The “number of branches vs untreated co-cultures” value [4] was “much more branches”, the “number of master segments compared to the control” value [4] was “not significantly different” and the “iNOS expression (130 kDa band)” value (MΦ-cTLR4 cells [5]) was “much lower intensity than the LPS-treated cells”. For the same molecule, the “ERK1/2 phosphorylation (p-ERK/total ERK ratio relative to zero timepoint)” value [6] was “upregulation of ERK1/2 phosphorylation at the 5 minute timepoint”, the “time of activation peak of p-IRF3/total IRF3 ratio” value [7] was 2 h and the “NF-κB promoter activation (luciferase activity normalized to Renilla)” value [8] was “increased NF-κB promoter activation”.

lipopolysaccharides [LPS] was tested, and the “VEGF expression compared to controls” value (MΦ-cTLR4 cells [3]) was “significantly decreased amounts of VEGF”, the “branching interval vs untreated co-cultures” value [4] was “smaller branching interval” and the isolated segments [4] was “highest number of isolated segments”. For the same molecule, the “number of branches vs untreated co-cultures” value [4] was “much more branches”, the “number of master segments compared to the control” value [4] was “not significantly different” and the “iNOS expression (130 kDa band)” value (MΦ-cTLR4 cells [5]) was “substantial increase in iNOS expression”. The “time of activation peak of p-IRF3/total IRF3 ratio” value [7] was 2 h.

B1: TNFα: recombinant mouse TNFα purchased from Sigma (protein)
chain: LRSSSQNSSDKPVAHVVANHQVEEQLEWLSQRANALLANGMDLKDNQLVVPADGLYLVYSQVLFKGQGCPDYVLLTHTVSRFAISYQEKVNLLSAVKSPCPKDTPEGAELKPWYEPIYLGGVFQLEKGDQLSAEVNLPKYLDFAESGQVYFGVIAL
With B1 the “EC positive for ICAM-1” value (bEnd.3 endothelial cells) was 57.2% and the “EC positive for VCAM-1” value (bEnd.3 endothelial cells) was 93.5%.

B2: IFN-γ: cytokine IFN-γ used to treat MΦ-cTLR4 cells (protein, UniProt P01580 23-155, looked up)
Interferon gamma: HGTVIESLESLNNYFNSSGIDVEEKSLFLDIWRNWQKDGDMKILQSQIISFYLRLFEVLKDNQAISNNISVIESHLITTFFSNSKAKKDAFMSIAKFEVNNPQVQRQAFNELIRVVHQLLPESSLRKRKRSRC
With B2 the “VEGF compared to the control, IFN-γ alone or in cocktail” value (MΦ-cTLR4 cells [3]; IFN-γ alone or cocktail with CID or LPS (FIG. 22B)) was “significant decrease in VEGF”.

— patent US20190008897A1, “COMPOSITIONS AND METHODS FOR PRODUCING PRO-INFLAMMATORY MACROPHAGES” (UNIVERSITY OF WASHINGTON, priority 2015, published 2019)
